The numbers were not newly measured in paper PMC6525986 (Theranostics, 2019), which cites them from elsewhere.

The IC50 is the midpoint of a concentration-inhibition curve.

This series concerns the target protein arginine methyltransferase 5 (PRMT5) (Homo sapiens, UniProt O14744). The series can be described thus: PRMT5 enzymatic inhibition assay. It is filed as biochemical.

Sequence of protein arginine methyltransferase 5 (PRMT5) (O14744 2-637): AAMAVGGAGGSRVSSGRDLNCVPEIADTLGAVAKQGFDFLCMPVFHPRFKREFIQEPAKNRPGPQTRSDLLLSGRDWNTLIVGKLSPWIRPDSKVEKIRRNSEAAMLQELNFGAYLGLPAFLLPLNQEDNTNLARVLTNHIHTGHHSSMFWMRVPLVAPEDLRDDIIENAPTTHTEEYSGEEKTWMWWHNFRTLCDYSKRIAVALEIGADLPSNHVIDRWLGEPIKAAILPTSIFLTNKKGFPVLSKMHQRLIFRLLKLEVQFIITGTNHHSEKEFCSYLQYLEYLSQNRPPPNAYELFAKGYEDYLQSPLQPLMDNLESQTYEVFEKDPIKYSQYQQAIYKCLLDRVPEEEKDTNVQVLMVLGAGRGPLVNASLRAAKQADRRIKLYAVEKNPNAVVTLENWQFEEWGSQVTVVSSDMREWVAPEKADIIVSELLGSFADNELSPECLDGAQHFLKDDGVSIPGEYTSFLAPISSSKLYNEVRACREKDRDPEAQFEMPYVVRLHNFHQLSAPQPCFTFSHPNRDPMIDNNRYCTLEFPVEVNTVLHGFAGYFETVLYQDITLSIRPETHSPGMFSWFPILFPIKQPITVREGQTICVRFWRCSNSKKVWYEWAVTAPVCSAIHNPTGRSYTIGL

Turning to DW14800 [compound 39], the IC50 was 17 nM.
